Assay results: patent publication US20250122211A1, “NITROGEN-CONTAINING TETRACYCLIC COMPOUND, PREPARATION METHOD THEREFOR, AND MEDICAL USE THEREOF” (Jiangsu Hengrui Pharmaceuticals Co., Ltd., priority 2021, published 2025)
Read-outs that look alike come from different tables or passages of the source.

Key:
Assay type in all cases: cell-based
H358 cells = test: H358 proliferation assay (CellTiter-Glo); details: 120 h incubation, read-out: IC50 (nM), inhibitory activity against H358 cell proliferation
Method: The inhibitory activity of the compounds of the present disclosure against H358 cell proliferation was measured. Below is a brief description of the experimental method: H358 cells (ATCC, CRL-5807) were cultured in RPMI1640 medium (Hyclone, SH30809.01) containing 10% fetal bovine serum (Corning, 35-076-CV) (i.e., complete medium). On the first day of the experiment, H358 cells were seeded into a 96-well plate at a density of 1200 cells/well using complete medium, with 100 μL of cell suspension per well, and the plate was incubated overnight in a 37° C., 5% CO2 cell incubator. On the second day, the test compounds, prepared in complete medium and serially diluted, were added at 10 μL/well. The final concentrations of the compounds were 9 concentration points obtained by a 5-fold serial dilution from 10 μM. A blank control containing 0.5% DMSO was set up. The plate was incubated for 120 h in a 37° C., 5% CO2 cell incubator. On the seventh day, the 96-well cell plate was removed from the incubator, and CellTiter-Glo® Luminescent Cell Viability Assay (Promega, G7573) was added at 50 μL/well. After 10 min of room temperature incubation, luminescence signals were measured using a multifunctional microplate reader (PerkinElmer, EnVision® 2105). The IC50 values for the inhibitory activity of the compounds were calculated using Graphpad Prism software.

[1] = system: ERK phosphorylation in H358 cells; test: H358 cell ERK phosphorylation inhibition assay (HTRF pERK/total ERK); details: 3 h incubation, ratio of pERK/total ERK, read-out: IC50 (nM), inhibitory effects on ERK phosphorylation in H358 cells
Method: The inhibitory effects of the compounds of the present disclosure on ERK phosphorylation in H358 cells were measured. Below is a brief description of the experimental method: H358 cells (ATCC, CRL-5807) were cultured in RPMI1640 medium (Hyclone, SH30809.01) containing 10% fetal bovine serum (Corning, 35-076-CV) (i.e., complete medium). On the first day of the experiment, H358 cells were seeded into a 96-well plate at a density of 25,000 cells/well using complete medium, with 190 μL of cell suspension per well, and the plate was incubated overnight in a 37° C., 5% CO2 cell incubator. On the second day, the test compounds, prepared in complete medium and serially diluted, were added at 10 μL/well. The final concentrations of the compounds were 9 concentration points obtained by a 6-fold serial dilution from 10 μM. A blank control containing 0.5% DMSO was set up. The plate was incubated for 3 h in a 37° C., 5% CO2 cell incubator. After 3 h, the 96-well cell culture plate was removed from the incubator, and the culture medium was pipetted off. PBS (Shanghai BasalMedia Technologies Co., Ltd., B320) was added at 200 μL/well for a single wash. PBS was pipetted off, and lysis buffer (Cisbio, 64KL1FDF) containing a blocking agent (Cisbio, 64KB1AAC) was added at 50 μL/well. The plate was incubated on a shaker for 30 min at room temperature to lyse the cells. After lysis, the lysates were well mixed by pipetting, and 16 μL of lysate was transferred from each well to two HTRF 96-well assay plates (Cisbio, 66PL96100). Subsequently, 4 μL of a premixed phospho-ERK1/2 antibody solution (Cisbio, 64AERPEG) or 4 μL of a premixed total-ERK1/2 antibody solution (Cisbio, 64NRKPEG) was added to each of the plates. The plates were sealed with a plate sealer film, centrifuged for 1 min in a microplate centrifuge, and incubated overnight at room temperature in the dark. On the third day, fluorescence values at an excitation wavelength of 337 nm and emission wavelengths of 665 nm and 620 nm were measured using a PHERAstar multifunctional microplate reader (BMG Labtech, PHERAstar FS). The IC50 values for the inhibitory activity of the compounds were calculated using Graphpad Prism software, based on the compound concentration and the ratio of pERK/total ERK.

MIA PaCa-2 cells = test: MIA PaCa-2 cell proliferation assay (CellTiter-Glo); details: 72 h incubation, read-out: IC50 (nM), inhibitory activity against MIA PaCa-2 cell proliferation
Method: The inhibitory activity of the compounds of the present disclosure against MIA PaCa-2 cell proliferation was measured. Below is a brief description of the experimental method:
MIA PaCa-2 cells (ATCC, CRL-1420) were cultured in DMEM/HIGH GLUCOSE medium (GE, SH30243.01) containing 10% fetal bovine serum (Corning, 35-076-CV) and 2.5% horse serum (Beyotime Biological Tech., C0262) (i.e., complete medium). On the first day of the experiment, MIA PaCa-2 cells were seeded into a 96-well plate at a density of 500 cells/well using complete medium, with 90 µL of cell suspension per well, and the plate was incubated overnight in a 37° C., 5% CO2 cell incubator. On the second day, the test compounds, prepared in complete medium and serially diluted, were added at 10 μL/well. The final concentrations of the compounds were 9 concentration points obtained by a 5-fold serial dilution from 10 μM. A blank control containing 0.5% DMSO was set up. The plate was incubated for 72 h in a 37° C., 5% CO2 cell incubator. On the fifth day, the 96-well cell plate was removed from the incubator, and CellTiter-Glo® Luminescent Cell Viability Assay (Promega, G7573) was added at 50 μL/well. After 10 min of room temperature incubation, luminescence signals were measured using a multifunctional microplate reader (PerkinElmer, EnVision2015). The IC50 values for the inhibitory activity of the compounds were calculated using Graphpad Prism software.

| SMILES | IC50 (H358 cells) [nM] | IC50 [1] [nM] | IC50 (MIA PaCa-2 cells) [nM] | IC50 (H358 cells; Homo sapiens, NCI-H358, 120 h) [nM] | IC50 ([1]; Homo sapiens, NCI-H358, 3 h) [nM] | IC50 (MIA PaCa-2 cells; Homo sapiens, MIA PaCa-2, 72 h) [nM] |
| --- | --- | --- | --- | --- | --- | --- |
| C=CC(=O)N1CCN2C(=O)c3c(F)c(F)c(-c4ccc(F)c5sc(N)c(C#N)c45)c4cnn(c34)CC[C@H]2C1 (atropisomer, axis not shown) [Example 11-P1, (R)-4-((S)-10-Acryloyl-1,2-difluoro-14-oxo-8,8a,9,10,11,12-hexahydro-7H,14H-pyrazino[1′,2′:5.6][1,5]diazocino[3,2,1-hi]indazol-3-yl)-2-amino-7-fluorobenzo[b]thiophene-3-carbonitrile] | 2.25 | 7.67 | 2.71 | – | – | – |
| C=CC(=O)N1CCN2C(=O)c3c(F)c(F)c(-c4ccc(F)c5sc(N)c(C#N)c45)c4cnn(c34)CC[C@H]2C1 (atropisomer, axis not shown) [Example 11-P2, (S)-4-((S)-10-Acryloyl-1,2-difluoro-14-oxo-8,8a,9,10,11,12-hexahydro-7H,14H-pyrazino[1′,2′:5.6][1,5]diazocino[3,2,1-hi]indazol-3-yl)-2-amino-7-fluorobenzo[b]thiophene-3-carbonitrile] | 0.32 | 0.09 | 0.46 | – | – | – |
| C=CC(=O)N1CCN2C(=O)c3cc(F)c(-c4ccc(F)c5sc(N)c(C#N)c45)c4c(F)cn(c34)CC[C@H]2C1 (atropisomer, axis not shown) [Example 13-P2, (S)-4-((S)-10-Acryloyl-2,4-difluoro-14-oxo-8,8a,9,10,11,12-hexahydro-7H,14H-pyrazino[1′,2′:5.6][1,5]diazocino[3,2,1-hi]indol-3-yl)-2-amino-7-fluorobenzo[b]thiophene-3-carbonitrile] | – | – | – | 11.4 | 0.76 | 20.5 |
| C=C(F)C(=O)N1CCN2C(=O)c3cc(F)c(-c4ccc(F)c5sc(N)c(C#N)c45)c4c(C)nn(c34)CC[C@H]2C1 (atropisomer, axis not shown) [Example 15-P1, (R)-2-Amino-7-fluoro-4-((S)-2-fluoro-10-(2-fluoroacryloyl)-4-methyl-14-oxo-8,8a,9,10,11,12-hexahydro-7H,14H-pyrazino[1′,2′:5,6][1,5]diazocino[3,2,1-hi]indazol-3-yl)benzo[b]thiophene-3-carbonitrile] | 41.6 | 19.7 | 56.8 | – | – | – |
| C=C(F)C(=O)N1CCN2C(=O)c3cc(F)c(-c4ccc(F)c5sc(N)c(C#N)c45)c4c(C)nn(c34)CC[C@H]2C1 (atropisomer, axis not shown) [Example 15-P2, (S)-2-Amino-7-fluoro-4-((S)-2-fluoro-10-(2-fluoroacryloyl)-4-methyl-14-oxo-8,8a,9,10,11,12-hexahydro-7H,14H-pyrazino[1′,2′:5,6][1,5]diazocino[3,2,1-hi]indazol-3-yl)benzo[b]thiophene-3-carbonitrile] | 4.21 | 3.94 | 7.75 | – | – | – |

More lines, now with the values ahead:

| IC50 (H358 cells) [nM] | IC50 [1] [nM] | IC50 (MIA PaCa-2 cells) [nM] | IC50 (H358 cells; Homo sapiens, NCI-H358, 120 h) [nM] | IC50 ([1]; Homo sapiens, NCI-H358, 3 h) [nM] | IC50 (MIA PaCa-2 cells; Homo sapiens, MIA PaCa-2, 72 h) [nM] | SMILES |
| --- | --- | --- | --- | --- | --- | --- |
| – | – | – | 8 | 1.06 | 4.56 | C=C(F)C(=O)N1CCN2C(=O)c3cc(F)c(-c4ccc(F)c5sc(N)c(C#N)c45)c4c(F)nn(c34)CC[C@H]2C1 (atropisomer, axis not shown) [Example 16-P2, (S)-2-Amino-4-((S)-2,4-difluoro-10-(2-fluoroacryloyl)-14-oxo-8,8a,9,10,11,12-hexahydro-7H,14H-pyrazino[1′,2′:5,6][1,5]diazocino[3,2,1-hi]indazol-3-yl)-7-fluorobenzo[b]thiophene-3-carbonitrile] |
| – | – | – | 1.87 | 2 | 1.88 | C=C(F)C(=O)N1CCN2C(=O)c3cc(F)c(-c4ccc(F)c5sc(N)c(C#N)c45)c4c(Cl)nn(c34)CC[C@H]2C1 (atropisomer, axis not shown) [Example 17-P2, (S)-2-Amino-4-((S)-4-chloro-2-fluoro-10-(2-fluoroacryloyl)-14-oxo-8,8a,9,10,11,12-hexahydro-7H,14H-pyrazino[1′,2′:5,6][1,5]diazocino[3,2,1-hi]indazol-3-yl)-7-fluorobenzo[b]thiophene-3-carbonitrile] |
| – | – | – | 9.57 | 1.09 | 9.16 | C=CC(=O)N1CCN2C(=O)c3cc(F)c(-c4ccc(F)c5sc(N)c(C#N)c45)c4c(C)cn(c34)CC[C@H]2C1 (atropisomer, axis not shown) [Example 18-P2, (S)-4-((S)-10-Acryloyl-2-fluoro-4-methyl-14-oxo-8,8a,9,10,11,12-hexahydro-7H,14H-pyrazino[1′,2′:5,6][1,5]diazocino[3,2,1-hi]indol-3-yl)-2-amino-7-fluorobenzo[b]thiophene-3-carbonitrile] |
| – | – | – | 5.65 | 0.97 | 4.9 | C=CC(=O)N1CCN2C(=O)c3cc(F)c(-c4ccc(F)c5sc(N)c(C#N)c45)c4c(Cl)cn(c34)CC[C@H]2C1 (atropisomer, axis not shown) [Example 19-P2, (S)-4-((S)-10-Acryloyl-4-chloro-2-fluoro-14-oxo-8,8a,9,10,11,12-hexahydro-7H,14H-pyrazino[1′,2′:5,6][1,5]diazocino[3,2,1-hi]indol-3-yl)-2-amino-7-fluorobenzo[b]thiophene-3-carbonitrile] |
| 4.94 | 3.67 | 1.66 | – | – | – | C=CC(=O)N1CCN2C(=O)c3cc(F)c(-c4ccc(F)c5sc(N)c(C#N)c45)c4nnn(c34)CC[C@H]2C1 (atropisomer, axis not shown) [Example 20-P1, (R)-4-((S)-9-Acryloyl-2-fluoro-12-oxo-7,7a,8,9,10,11-hexahydro-6H,12H-4,5,5a,9,11a-pentaazabenzo[5,6]cycloocta[1,2,3-cd]inden-3-yl)-2-amino-7-fluorobenzo[b]thiophene-3-carbonitrile] |
| – | 0.88 | – | 7.9 | – | 1.21 | C=CC(=O)N1CCN2C(=O)c3cc(F)c(-c4ccc(F)c5sc(N)c(C#N)c45)c4nnn(c34)CC[C@H]2C1 (atropisomer, axis not shown) [Example 20-P2, (S)-4-((S)-9-Acryloyl-2-fluoro-12-oxo-7,7a,8,9,10,11-hexahydro-6H,12H-4,5,5a,9,11a-pentaazabenzo[5,6]cycloocta[1,2,3-cd]inden-3-yl)-2-amino-7-fluorobenzo[b]thiophene-3-carbonitrile] |
